According to patent US9284283B2, “Macrocyclic compounds for modulating IL-17” (ENSEMBLE THERAPEUTICS CORPORATION, priority 2012, dated 2016):

biological target: T1, biotinylated human IL-17 (binding to IL17R/Fc) (Homo sapiens, UniProt Q16552); test: IL-17 competition ELISA II (captured IL17R/Fc, biotinylated IL-17)
T1 construct: purchased R&D Systems 317-ILB (IL-17, biotinylated); 177-IR (IL17R/Fc)
T1 sequence (Q16552 20-155 limits assumed): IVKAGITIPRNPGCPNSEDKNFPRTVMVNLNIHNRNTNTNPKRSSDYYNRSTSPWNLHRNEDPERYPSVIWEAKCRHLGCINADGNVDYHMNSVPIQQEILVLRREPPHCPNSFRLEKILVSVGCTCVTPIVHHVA
Procedure: In this version, a high binding 96-well plate (Costar #9018) was coated with 20 nM of goat anti-human IgG (KPL 01-10-02) in PBS, 100 μL/well, for 30 min at 37° C. followed by 5 min at 4° C. The plate was then washed in PBST (PBS/0.05% Tween-20) on a plate washer, (BioTek ELx450) then blocked with protein-free blocking buffer (Thermo Scientific #37573) in 250 μL/well for 30 min on a shaker at room temperature, and then washed again. IL17R/Fc (R&D Systems #177-IR; 10 nM in PBST, 100 μL/well) was then added to all wells. The plate was then incubated for 30 minutes at room temperature on the shaker.
While the receptor capture step was underway, compound dilutions were prepared in PBST to a concentration of 1 μM in 1.5 mL tubes. After the receptor capture step, the plate was washed and 50 μL PBST was added to the wells in row B down to row H. Then, 62.5 μL of the 1 μM compound dilutions were added to the wells of row A. From row A, 12.5 μL of the compound solution was removed and added to row B with mixing and this process of 5-fold dilutions was continued, by row, to row G. One of the wells in row A received only PBST (62.5 μL) and this dilution series served as the no competitor control. Then, going up from row G to row A, 50 μL of b-IL-17 (biotinylated human IL-17, R&D Systems #317-ILB; 20 nM) was added to all wells. Row H received 50 μL of PBST and served as the blank row, i.e., no compound and no b-IL-17. The plate was then incubated for 30 minutes at room temperature on the shaker.
After the wash, 100 μL Streptavidin-Horseradish Peroxidase (SA-HRP) (KPL #14-30-00) at 25 ng/mL in PBST was added to each well in the plate and the plate incubated for 30 minutes at room temperature followed by wash and 100 μL SureBlue™ TMB (KPL #52-00-03). After sufficient color development (approx 3-6 minutes), the reaction was fixed by the addition of 100 μL/well 0.5 N HCl and absorbance was measured at 450 nm on a BioTek Synergy 2 plate reader. The absorbances of ‘no competitor’ control and blank control should not exceed 1.5 A.U. and 0.06 A.U., respectively.
Data was processed using BioAssay Enterprise v10.1.4 (CambridgeSoft) software. Linear OD λ450 were plotted against log concentration (x) and fitted to a 4-parameter logistic equation. IC50 was calculated using positive ‘no competitor’ control data as an upper limit and blank control as a lower limit in each assay.

Row | Compound | IC50
1 | C[C@H]1NC(=O)[C@@H](Cc2ccc(NC(=O)[C@H](Cc3ccccc3Cl)NC(=O)Cc3cccnc3)cc2)NC(=O)CC2(CCCC2)CC(=O)N(C)CCCCCN(C)C1=O [Compound 628] | < 100 nM
2 | O=C1CC2(CCCC2)CC(=O)N[C@H](Cc2ccc(NC(=O)[C@H](Cc3ccccc3Cl)NC(=O)NCc3ccccc3)cc2)C(=O)NCCOCCOCCN1 [Compound 463] | < 100 nM
3 | C[C@H]1NC(=O)[C@@H](Cc2ccc(NC(=O)[C@@H](NC(=O)Cc3ccc(N(C)C)cc3)C3CCCCC3)cc2)NC(=O)CC2(CCCC2)CC(=O)N(C)CCOCCN(C)C1=O [Compound 603] | < 100 nM
4 | C[C@H]1NC(=O)[C@@H](Cc2ccc(NC(=O)[C@H](Cc3ccccc3Cl)NC(=O)Cc3ccc(F)cc3)cc2)NC(=O)CC2(CCCC2)NC(=O)CCCCCCCNC1=O [Compound 619] | < 100 nM
5 | NC(=O)CC[C@H]1NC(=O)[C@@H](Cc2ccc(NC(=O)[C@H](Cc3ccccc3Cl)NC(=O)C3(c4ccc(F)cc4)CC3)cc2)NC(=O)CC2(CCCC2)CC(=O)N[C@H](C(=O)O)CCCCNC1=O [Compound 527] | < 100 nM
6 | O=C1CNC(=O)[C@@H](Cc2ccc(NC(=O)[C@@H](NC(=O)Cc3c(F)cc(F)cc3F)C3CCCCC3)cc2)NC(=O)CC2(CCCC2)CC(=O)NCCCCCN1 [Compound 404] | < 100 nM
7 | O=C1CC2(CCCC2)CC(=O)N[C@H](Cc2ccc(NC(=O)[C@H](Cc3ccccc3Cl)NC(=O)Cc3ccc(CO)cc3)cc2)C(=O)NCCNCCN1 [Compound 412] | 100 to 1000 nM
8 | O=C1CNC(=O)[C@@H](Cc2ccc(NC(=O)[C@@H](NC(=O)C(F)(F)c3ccccc3)C3CCCCC3)cc2)NC(=O)CC2(CCCC2)CC(=O)OCCCCCN1 [Compound 671] | < 100 nM
9 | CCC(F)(F)C(=O)NC(C(=O)Nc1ccc(CC2NC(=O)CC3(CCCC3)CC(=O)OCCCCCN(C)C(=O)CNC2=O)cc1)C1CCCCC1 (centres unmarked) [Compound 680] | 100 to 1000 nM
10 | CN1C(=O)CC2(CCCC2)CC(=O)N[C@H](C(=O)O)CCCCNC(=O)[C@@H](C(C)(C)C)NC(=O)[C@H]1Cc1ccc(NC(=O)[C@H](Cc2ccccc2Cl)NC(=O)C2(c3ccc(F)cc3)CC2)cc1 [Compound 514] | 100 to 1000 nM
11 | C[C@H]1NC(=O)[C@@H](Cc2ccc(NC(=O)[C@H](Cc3ccccc3Cl)NC(=O)Cc3ccc(F)cc3)cc2)N(C)C(=O)CC2(CCCC2)CC(=O)N(C)CCCCCN(C)C1=O [Compound 489] | < 100 nM
12 | O=C1CC2(CCCC2)CC(=O)N[C@H](Cc2ccc(NC(=O)[C@H](Cc3ccccc3Cl)NC(=O)c3ccc(F)cc3O)cc2)C(=O)NCCOCCOCCN1 [Compound 538] | 100 to 1000 nM
13 | CN1CCOCCOCCN(C)C(=O)[C@@H](Cc2ccc(NC(=O)[C@H](Cc3ccccc3Cl)NC(=O)Cc3ccccc3)cc2)NC(=O)CC2(CCCC2)CC1=O [Compound 589] | < 100 nM
14 | C[C@H]1NC(=O)[C@@H](Cc2ccc(NC(=O)[C@@H](Nc3nc4ccccc4o3)C3CCCCC3)cc2)NC(=O)CC2(CCCC2)CC(=O)N(C)CCOCCN(C)C1=O [Compound 663] | < 100 nM
15 | CC(C)OC(=O)N[C@@H](Cc1ccccc1Cl)C(=O)Nc1ccc(C[C@H]2NC(=O)CC3(CCCC3)CC(=O)NCCCCCNC(=O)[C@@H](C)NC2=O)cc1 [Compound 578] | < 100 nM
16 | O=C1CC2(CCCC2)CC(=O)N[C@H](Cc2ccc(NC(=O)[C@H](Cc3ccccc3Cl)NC(=O)c3cccnc3)cc2)C(=O)N[C@@H](CO)C(=O)NCCCC[C@@H](C(=O)O)N1 [Compound 451] | < 100 nM
17 | CN1CCOCCN(C)C(=O)[C@@H](Cc2cccnc2)NC(=O)[C@@H](Cc2ccc(NC(=O)[C@H](Cc3ccccc3Cl)NC(=O)C(F)(F)c3ccccc3)cc2)NC(=O)CC2(CCCC2)CC1=O [Compound 638] | < 100 nM
18 | CN1CCOCCN(C)C(=O)[C@@H](Cc2ccccn2)NC(=O)[C@@H](Cc2ccc(NC(=O)[C@H](Cc3ccccc3Cl)NC(=O)C(F)(F)c3ccccc3)cc2)NC(=O)CC2(CCCC2)CC1=O [Compound 637] | < 100 nM
19 | Cc1ccc(C[C@H](NC(=O)C2(c3ccc(F)cc3)CC2)C(=O)Nc2ccc(C[C@H]3NC(=O)CC4(CCCC4)CC(=O)N(C)CCCCCNC(=O)[C@@H](C)NC3=O)cc2)c(C)c1 [Compound 509] | 100 to 1000 nM

Row | Compound | IC50
20 | CN1CCNC(=O)CC2(CCCC2)CC(=O)N(C)[C@H](Cc2ccc(NC(=O)[C@H](Cc3ccccc3)N(C)C(=O)c3ccccc3)cc2)C(=O)N2CCC[C@H]2C(=O)NCC1 [Compound 371] | 1000 to 10000 nM
21 | O=C1CC2(CCCC2)CC(=O)N[C@H](Cc2ccc(NC(=O)[C@H](Cc3ccccc3Cl)NC(=O)Cc3ccccc3)cc2)C(=O)NCCOCCN1 [Compound 397] | < 100 nM
22 | CN1CCCCCN(C)C(=O)[C@@H](CC(N)=O)NC(=O)[C@@H](Cc2ccc(NC(=O)[C@@H](NC(=O)C(F)(F)c3ccccc3)C3CCCCC3)cc2)NC(=O)CC2(CCCC2)CC1=O [Compound 670] | < 100 nM
23 | O=C1CNC(=O)[C@@H](Cc2ccc(NC(=O)[C@@H](NC(=O)C(F)F)C3CCCCC3)cc2)NC(=O)CC2(CCCC2)CC(=O)OCCCCCN1 [Compound 672] | < 100 nM
24 | NC(=O)CC[C@@H]1NC(=O)[C@@H](Cc2ccc(NC(=O)[C@H](Cc3ccccc3Cl)NC(=O)Cc3ccc(F)cc3)cc2)NC(=O)CC2(CCCC2)CC(=O)N[C@H](C(=O)O)CCCCNC1=O [Compound 651] | < 100 nM
25 | O=C1CC2(CCCC2)CC(=O)N[C@H](Cc2ccc(NC(=O)[C@H](Cc3ccccc3Cl)NC(=O)Oc3ccc(F)cc3)cc2)C(=O)NCCOCCOCCN1 [Compound 572] | < 100 nM
26 | CN1CCOCCOCCNC(=O)[C@@H](Cc2ccc(NC(=O)[C@@H](NC(=O)Cc3ccc(N(C)C)cc3)C3CCCCC3)cc2)NC(=O)CC2(CCCC2)CC1=O [Compound 640] | < 100 nM
27 | CN1CCCCCN(C)C(=O)CC2(CCCC2)CC(=O)N[C@H](Cc2ccc(NC(=O)[C@H](Cc3ccccc3Cl)NC(=O)Cc3ccccc3)cc2)C(=O)NCC1=O [Compound 387] | < 100 nM
28 | CN1CCOCCOCCN(C)C(=O)[C@@H](Cc2ccc(NC(=O)[C@H](Cc3ccccc3Cl)NC(=O)C(F)(F)c3ccccc3)cc2)NC(=O)CC2(CCCC2)CC1=O [Compound 591] | < 100 nM
29 | O=C1CC2(CCCC2)CC(=O)N[C@H](Cc2ccc(NC(=O)[C@H](Cc3ccccc3Cl)NC(=O)Cc3ccc(CO)cc3)cc2)C(=O)NCCOCCN1 [Compound 400] | < 100 nM
30 | O=C1CC2(CCCC2)CC(=O)N[C@H](Cc2ccc(NC(=O)[C@H](Cc3ccccc3Cl)NC(=O)Cc3ccc(CO)cc3)cc2)C(=O)NC/C=C/CCCCCN1 [Compound 365] | < 100 nM
31 | O=C1CNC(=O)[C@@H](Cc2ccc(NC(=O)[C@H](Cc3ccccc3Cl)NC(=O)C(F)(F)c3ccccc3)cc2)NC(=O)CC2(CCCC2)CC(=O)OCCCCCN1 [Compound 674] | < 100 nM
32 | O=C(O)CC[C@H]1NC(=O)[C@@H](Cc2ccc(NC(=O)[C@H](Cc3ccccc3Cl)NC(=O)C3(c4ccc(F)cc4)CC3)cc2)NC(=O)CC2(CCCC2)CC(=O)NCCCCCNC1=O [Compound 472] | < 100 nM
33 | C[C@H]1NC(=O)[C@@H](Cc2ccc(NC(=O)[C@H](Cc3ccccc3Cl)NC(=O)OCc3ccccc3)cc2)NC(=O)CC2(CCCC2)CC(=O)N(C)CCN(C)CCN(C)C1=O [Compound 587] | < 100 nM
34 | CN(C)CCCC[C@H]1NC(=O)[C@@H](Cc2ccc(NC(=O)[C@H](Cc3ccccc3Cl)NC(=O)C(F)(F)c3ccccc3)cc2)NC(=O)CC2(CCCC2)CC(=O)N(C)CCOCCN(C)C1=O [Compound 641] | < 100 nM
35 | CN1CCCC[C@@H](C(=O)O)N(C)C(=O)CC2(CCCC2)CC(=O)N[C@H](Cc2ccc(NC(=O)[C@H](Cc3ccccc3Cl)NC(=O)C(F)(F)c3ccccc3)cc2)C(=O)N[C@H](CCC(N)=O)C1=O [Compound 667] | < 100 nM
36 | CN1CCOCCOCCNC(=O)[C@@H](Cc2ccc(NC(=O)[C@H](Cc3ccccc3Cl)NC(=O)C(F)(F)c3ccccc3)cc2)NC(=O)CC2(CCCC2)CC1=O [Compound 565] | < 100 nM
37 | C[C@H]1NC(=O)[C@@H](Cc2ccc(NC(=O)[C@@H](NC(=O)C(F)(F)c3ccccc3)C3CCCCC3)cc2)NC(=O)CC2(CCCC2)CC(=O)N(C)CCN(C)CCN(C)C1=O [Compound 604] | < 100 nM
38 | COC(=O)N[C@H](C(=O)Nc1ccc(C[C@H]2NC(=O)CC3(CCCC3)CC(=O)N(C)CCCCCN(C)C(=O)[C@@H](C)NC2=O)cc1)C1CCCCC1 [Compound 625] | 100 to 1000 nM
